Data published in patent US20240389885A1, “DAILY FASTING METHANE TO DETECT INTESTINAL METHANOGEN OVERGROWTH AND MONITOR TREATMENT RESPONSE” (Cedars-Sinai Medical Center, priority 2021, published 2024).

How the values were obtained:
[1] = tested on: canine small bowel transit; settings: infusion of CH4, canine; cited from earlier work
[2] = tested on: subjects with IBS-C and IMO; assay: EASE-DO randomized double-blind placebo-controlled trial (NCT03763175); format: in vivo, human; settings: 14-week trial, adult patients with IBS-C and IMO, single daily oral doses vs placebo
Description: To evaluate the accuracy and temporal stability of SMM, and to assess its correlation with stool M. smithii loads, we analyzed data from a randomized double-blind placebo-controlled trial: Efficacy and Safety of Single, Daily Oral Doses of SYN-010 Compared to Placebo in Adult Patients with IBS-C (EASE-DO, NCT03763175).
Trial details: Efficacy and Safety of Single, Daily Oral Doses of SYN-010 Compared to Placebo in Adult Patients with IBS-C (EASE-DO, NCT03763175) was a 14-week single-center randomized double-blind placebo-controlled trial evaluating the effects of lovastatin lactone on subjects with IBS-C and IMO. Subjects were excluded if they were on statins, fibrates, niacin, narcotics, laxatives, tegaserod, lubiprostone, linaclotide, metoclopramide, prucalopride, domperidone, plecanatide, CandiBactin, Atrantil, Allimax/Allimed, antibiotics within 2 months and opioids within 3 months prior to the study. If subjects were on probiotics or fiber supplements, they were asked to not change their dose. […] All subjects enrolled in this study completed a 2-hour breath test at their initial visit and their weekly complete spontaneous bowel movement (CSBM) and spontaneous bowel movement (SBM) were recorded. After recording their baseline CSBM and SBM for 2 weeks, subjects returned to the lab and their SMM and stool samples were collected (FIG. 1). […]

Structure (SMILES) | effect on small bowel transit [1] | primary endpoint, interim futility analysis [2]
C [CH4, methane] | slows canine small bowel transit | 
CC[C@H](C)C(=O)O[C@H]1C[C@@H](C)C=C2C=C[C@H](C)[C@H](CC[C@@H]3C[C@@H](O)CC(=O)O3)[C@H]21 [SYN-010, lovastatin lactone] |  | not meeting the primary endpoint
